Assay results: the NIST ThermoML archive (doi:10.1021/acs.jced.5b01075)
Several values for one entry are separate records, joined by “and”; a condition that tells them apart may be missing. Equal values may be shown once.

Settings: 101.33 kPa, Liquid; for speed of sound: Sing-around technique in a fixed-path interferometer; for mass density: Vibrating tube method

Cc1ccccc1 [toluene]
Settings	mass density	speed of sound [m/s]
293.15 K	866.816 kg/m3 and 866.8 kg/m3	1326.5
303.15 K	857.497 kg/m3 and 857.5 kg/m3	1283.5
313.15 K	848.114 kg/m3 and 848.1 kg/m3	1241
323.15 K	838.661 kg/m3 and 838.7 kg/m3	1198.9
333.15 K	829.124 kg/m3 and 829.1 kg/m3	1157.5
343.15 K	819.5 kg/m3	–
353.15 K	809.7 kg/m3	–
